The values that follow come from ChEMBL document CHEMBL6182920, “The Discovery of C7-Substituted Norbornyl Bisamides as RXFP1 Small Molecule Agonists” (J Med Chem, 2025).

For data set [1], the target named is T1, Relaxin receptor 1 (Mus musculus, UniProt Q6R6I7).
T1 sequence (Q6R6I7 whole entry): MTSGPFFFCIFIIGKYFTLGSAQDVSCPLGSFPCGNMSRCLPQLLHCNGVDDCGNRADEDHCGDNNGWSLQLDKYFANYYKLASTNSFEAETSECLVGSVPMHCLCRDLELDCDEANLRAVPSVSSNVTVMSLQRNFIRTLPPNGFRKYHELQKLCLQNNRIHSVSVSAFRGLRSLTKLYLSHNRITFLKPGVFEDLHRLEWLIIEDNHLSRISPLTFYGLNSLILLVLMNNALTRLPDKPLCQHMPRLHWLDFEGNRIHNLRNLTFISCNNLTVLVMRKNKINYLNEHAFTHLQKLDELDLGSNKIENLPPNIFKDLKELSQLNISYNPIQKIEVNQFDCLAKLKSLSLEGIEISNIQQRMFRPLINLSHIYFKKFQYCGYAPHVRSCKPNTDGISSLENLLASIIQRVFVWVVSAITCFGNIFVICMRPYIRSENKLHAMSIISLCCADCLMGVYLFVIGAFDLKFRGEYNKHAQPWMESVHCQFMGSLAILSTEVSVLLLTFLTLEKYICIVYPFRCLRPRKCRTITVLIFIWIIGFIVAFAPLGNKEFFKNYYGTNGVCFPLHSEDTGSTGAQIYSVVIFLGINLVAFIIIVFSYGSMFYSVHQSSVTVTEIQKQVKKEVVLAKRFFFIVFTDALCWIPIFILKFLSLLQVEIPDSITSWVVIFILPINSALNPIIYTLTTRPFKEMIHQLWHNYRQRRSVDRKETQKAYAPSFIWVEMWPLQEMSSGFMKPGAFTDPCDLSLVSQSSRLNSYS
Briefly: Agonist activity at mouse RXFP1 stably expressed in HEK293 cells assessed as intracellular cAMP accumulation incubated for 30 mins by HTRF assay. Format: functional, cell-based. A general note: Cyclic AMP is a second messenger, typically raised through Gs and lowered through Gi signalling.

A short description of data set [2]: Microsomal stability in rat liver microsomes assessed as compound remaining measured after 30 mins. Format: ADME, Microsome. The settings on record: read-out: Stability.
Data set [3] in a line: Microsomal stability in human liver microsomes assessed as compound remaining measured after 30 mins. The data set is classed as ADME, Microsome. The settings on record: read-out: Stability. Background: Microsomes from liver hold many membrane-bound enzymes, among them those of drug oxidation.
The nature of data set [4]: Microsomal stability in mouse liver microsomes assessed as compound remaining measured after 30 mins. The data set is classed as ADME, Microsome. As to conditions: read-out: Stability.
Data set [5] addresses T2, Relaxin receptor 1 (Homo sapiens, UniProt Q9HBX9).
T2 sequence (Q9HBX9 whole entry): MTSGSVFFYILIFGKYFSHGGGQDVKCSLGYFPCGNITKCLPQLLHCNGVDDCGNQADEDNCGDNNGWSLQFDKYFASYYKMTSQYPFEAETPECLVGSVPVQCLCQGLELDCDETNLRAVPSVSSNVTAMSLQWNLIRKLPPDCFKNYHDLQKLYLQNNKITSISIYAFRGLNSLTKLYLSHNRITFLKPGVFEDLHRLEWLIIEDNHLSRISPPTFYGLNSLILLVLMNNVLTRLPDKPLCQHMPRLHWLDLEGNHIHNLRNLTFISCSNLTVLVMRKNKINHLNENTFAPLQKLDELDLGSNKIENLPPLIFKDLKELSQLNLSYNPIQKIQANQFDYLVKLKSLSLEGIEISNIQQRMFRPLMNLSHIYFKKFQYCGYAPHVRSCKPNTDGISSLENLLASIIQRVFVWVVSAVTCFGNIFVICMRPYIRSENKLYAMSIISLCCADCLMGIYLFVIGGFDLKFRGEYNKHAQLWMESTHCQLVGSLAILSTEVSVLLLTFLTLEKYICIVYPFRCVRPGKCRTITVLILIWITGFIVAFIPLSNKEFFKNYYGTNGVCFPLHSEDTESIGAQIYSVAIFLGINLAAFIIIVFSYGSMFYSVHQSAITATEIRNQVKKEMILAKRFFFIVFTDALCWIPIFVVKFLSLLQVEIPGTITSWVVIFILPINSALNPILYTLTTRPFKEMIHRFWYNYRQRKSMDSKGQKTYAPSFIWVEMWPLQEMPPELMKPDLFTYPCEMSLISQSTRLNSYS
Briefly: Agonist activity at human RXFP1 stably expressed in HEK293 cells assessed as intracellular cAMP accumulation incubated for 30 mins by HTRF assay.

In data set [6] the target is T3, Relaxin receptor 1 (Rattus norvegicus, UniProt Q6R6I6).
T3 sequence (Q6R6I6 whole entry): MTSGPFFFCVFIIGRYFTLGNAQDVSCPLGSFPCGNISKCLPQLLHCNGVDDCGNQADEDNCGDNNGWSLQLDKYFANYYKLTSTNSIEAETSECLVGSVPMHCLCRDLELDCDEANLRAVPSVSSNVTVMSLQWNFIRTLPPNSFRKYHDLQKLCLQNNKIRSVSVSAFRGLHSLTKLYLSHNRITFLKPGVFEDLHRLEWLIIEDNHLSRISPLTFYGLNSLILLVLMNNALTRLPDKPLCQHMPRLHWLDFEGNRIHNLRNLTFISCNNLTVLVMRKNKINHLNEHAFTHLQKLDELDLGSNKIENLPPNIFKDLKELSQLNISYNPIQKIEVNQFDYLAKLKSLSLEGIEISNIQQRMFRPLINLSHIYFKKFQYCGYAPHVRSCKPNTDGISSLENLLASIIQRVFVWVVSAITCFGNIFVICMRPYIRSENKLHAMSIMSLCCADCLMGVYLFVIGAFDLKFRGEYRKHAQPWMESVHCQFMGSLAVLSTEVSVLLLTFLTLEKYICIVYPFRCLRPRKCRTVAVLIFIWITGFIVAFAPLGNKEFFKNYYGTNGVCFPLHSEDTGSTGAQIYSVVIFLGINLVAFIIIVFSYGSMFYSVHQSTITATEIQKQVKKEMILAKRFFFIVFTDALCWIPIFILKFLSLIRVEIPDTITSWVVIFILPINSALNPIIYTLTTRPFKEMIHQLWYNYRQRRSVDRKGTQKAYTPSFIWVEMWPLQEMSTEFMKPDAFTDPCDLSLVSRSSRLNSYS
Briefly: Agonist activity at rat RXFP1 stably expressed in HEK293 cells assessed as intracellular cAMP accumulation incubated for 30 mins by HTRF assay. Format: cell-based.

Data set [7] is described as follows: Thermodynamic aqueous solubility of compound in phosphate buffer at pH 7.4 by reversed-phase ultrahigh pressure liquid chromatography. The data set is classed as physicochemical. As to conditions: for solubility thermodynamic: phosphate buffer, read-out: Therm_solubility.

SMILES strings stand for the structures. pEC50: −log10 of the molar value. Values after ≈ are worked out from the molar mass of the structure shown. A value given as a limit tells only on which side of the number the result lay.

`COc1ccc(-c2cc(C(N)=O)ccc2F)cc1C(=O)N[C@H]1[C@@H](C(=O)Nc2ccc(F)c(C(F)(F)F)c2)[C@H]2CC[C@@H]1/C2=C\c1cnoc1`: the pEC50 at Relaxin receptor 1 [1] is 6.02. For the same compound, the remaining at 0.5 h in data set [2], in data set [3] and in data set [4] was more than 90% each time.
`COc1ccc(-c2cc(C(=O)O)ccc2F)cc1C(=O)N[C@H]1[C@@H](C(=O)NC2CCCC2)[C@H]2CC[C@@H]1/C2=C\C1CC1`: the pEC50 on Relaxin receptor 1 [1] was 5.89.
Take `COc1cc(F)c(F)cc1C(=O)N[C@H]1[C@@H](C(=O)Nc2ccc(F)c(C(F)(F)F)c2)[C@@H]2CC[C@@H]1C2C(C)C` (stereo in doubt): the pEC50 on Relaxin receptor 1 [5] is 5.46.
Take `COc1ccc(-c2ccccc2C(=O)O)cc1C(=O)N[C@H]1[C@@H](C(=O)Nc2ccc(F)c(C(F)(F)F)c2)[C@H]2CC[C@@H]1C2=C(C)C`: at Relaxin receptor 1 [1], the negative-log EC50 (pEC50) is less than 4.70.
For the compound `COc1ccc(-c2cc(C(O)C(=O)O)ccc2F)cc1C(=O)N[C@H]1[C@@H](C(=O)Nc2ccc(F)c(C(F)(F)F)c2)[C@H]2CC[C@@H]1/C2=C\c1cnoc1` (some centres undefined), the pEC50 on Relaxin receptor 1 [1] is 5.96; at Relaxin receptor 1 [5], 7.89; on Relaxin receptor 1 [6], 5.96. In addition, the solubility thermodynamic in data set [7] stood at 60 µg/mL (≈ 86 µM). For the same compound, the remaining at 0.5 h in data set [2], in data set [3] and in data set [4] was more than 90% in each case.
In the case of `COc1cc(F)c(F)cc1C(=O)N[C@H]1[C@@H](C(=O)Nc2ccc(F)c(C(F)(F)F)c2)[C@H]2CC[C@@H]1/C2=C\c1c(Cl)cccc1Cl`, the negative-log EC50 (pEC50) on Relaxin receptor 1 [5] was 5.43.
For `COc1cc(F)c(F)cc1C(=O)N[C@H]1[C@@H](C(=O)Nc2ccc(F)c(C(F)(F)F)c2)[C@H]2CC[C@@H]1/C2=C1/C=Cc2ccccc21`, at Relaxin receptor 1 [5], the pEC50 was 6.09.
In the case of `COc1ccc(-c2cc(C(=O)O)ccc2OC)cc1C(=O)N[C@H]1[C@@H](C(=O)Nc2ccc(F)c(C(F)(F)F)c2)[C@H]2CC[C@@H]1C2=C(C)C`, at Relaxin receptor 1 [1], the negative-log EC50 (pEC50) is 5.34.
For `COc1ccc(-c2cc(CC(=O)O)ccc2F)cc1C(=O)N[C@H]1[C@@H](C(=O)Nc2ccc(F)c(C(F)(F)F)c2)[C@H]2CC[C@@H]1/C2=C\c1cnoc1`, the pEC50 is 6.13 on Relaxin receptor 1 [1], 7.96 at Relaxin receptor 1 [5] and 5.92 at Relaxin receptor 1 [6]. For the same compound, the solubility thermodynamic in data set [7] amounted to 130 µg/mL (≈ 191 µM). The remaining at 0.5 h in data set [2], in data set [3] and in data set [4] was more than 90% in each case.
On to `COc1ccc(-c2ccncc2)cc1C(=O)N[C@H]1[C@@H](C(=O)Nc2ccc(F)c(C(F)(F)F)c2)[C@H]2CC[C@@H]1C2=C(C)C`, for which, at Relaxin receptor 1 [1], the pEC50 was less than 4.70.
With `COc1ccc(-c2cc(C(=O)O)ccc2F)cc1C(=O)N[C@H]1[C@@H](C(=O)Nc2ccc(F)c(C(F)(F)F)c2)[C@H]2CC[C@@H]1/C2=C\c1ccccc1`, the negative-log EC50 (pEC50) on Relaxin receptor 1 [1] is 5.89; at Relaxin receptor 1 [5] it was 7.80. Also, the remaining at 0.5 h in data set [2], in data set [3] and in data set [4] was more than 90% each time.
Take `CNC(=O)OC(C(=O)O)c1ccc(F)c(-c2ccc(OC)c(C(=O)N[C@H]3[C@@H](C(=O)Nc4ccc(F)c(C(F)(F)F)c4)[C@H]4CC[C@@H]3/C4=C\c3cnoc3)c2)c1` (some centres undefined): the negative-log EC50 (pEC50) on Relaxin receptor 1 [1] was 6.96; at Relaxin receptor 1 [5], 8.10; at Relaxin receptor 1 [6], 6.85. Besides, the remaining at 0.5 h in data set [2], in data set [3] and in data set [4] was more than 90% each time.
Consider `COc1ccc(-c2cc(C(=O)O)ccc2F)cc1C(=O)N[C@H]1[C@@H](C(=O)NCc2ccccc2C(F)(F)F)[C@H]2CC[C@@H]1/C2=C\C1CC1`, for which, on Relaxin receptor 1 [1], the negative-log EC50 (pEC50) is 5.66.
Regarding `COc1ccc(-c2cc(C(=O)O)ccc2F)cc1C(=O)N[C@H]1[C@@H](C(=O)Nc2ccc(F)c(C(F)(F)F)c2)[C@H]2CC[C@@H]1/C2=C\C1CC1`, the pEC50 on Relaxin receptor 1 [1] is 6.85. Also, the remaining at 0.5 h in data set [2], in data set [3] and in data set [4] was more than 90% throughout.
Regarding `COc1ccc(-c2cc(C(=O)O)ccc2F)cc1C(=O)N[C@H]1[C@@H](C(=O)Nc2ccc(F)c(C(F)(F)F)c2)[C@H]2CC[C@@H]1C2=C(C)C`, the negative-log EC50 (pEC50) on Relaxin receptor 1 [1] is 6.03.
In the case of `COc1ccc(-c2cccc(C(=O)O)c2)cc1C(=O)N[C@H]1[C@@H](C(=O)Nc2ccc(F)c(C(F)(F)F)c2)[C@H]2CC[C@@H]1C2=C(C)C`, at Relaxin receptor 1 [1], the pEC50 was 5.20.
Turning to `CNC(=O)OC(C(=O)O)c1ccc(F)c(-c2ccc(OC)c(C(=O)N[C@H]3[C@@H](C(=O)Nc4ccc(F)c(C(F)(F)F)c4)[C@H]4CC[C@@H]3/C4=C\C3CC3)c2)c1` (stereo in doubt; 40), the results for the pEC50 on Relaxin receptor 1 [1], on Relaxin receptor 1 [5] and at Relaxin receptor 1 [6] were 6.41, 8.22 and 6.23, respectively. Further, the Therm_solubility in data set [7] (buffer) was 250 µg/mL. For the same compound, the remaining at 0.5 h in data set [2], in data set [3] and in data set [4] was more than 90% each time.
Consider `COc1ccc(-c2cccnc2)cc1C(=O)N[C@H]1[C@@H](C(=O)Nc2ccc(F)c(C(F)(F)F)c2)[C@H]2CC[C@@H]1C2=C(C)C`, for which the pEC50 at Relaxin receptor 1 [1] was less than 5.00.
For `COc1cc(F)c(F)cc1C(=O)N[C@H]1[C@@H](C(=O)Nc2ccc(F)c(C(F)(F)F)c2)[C@@H]2CC[C@@H]1C2C(C)C` (single isomer, unassigned; isomer 2), the negative logarithm of the EC50 (pEC50) at Relaxin receptor 1 [5] was 4.85.
Consider `COc1ccc(-c2cc(C(=O)O)ccc2C)cc1C(=O)N[C@H]1[C@@H](C(=O)Nc2ccc(F)c(C(F)(F)F)c2)[C@H]2CC[C@@H]1C2=C(C)C`, for which the pEC50 at Relaxin receptor 1 [1] was 5.77.
For the compound `COC(=O)c1ccc(F)c(-c2ccc(OC)c(C(=O)N[C@H]3[C@@H](C(=O)Nc4ccc(F)c(C(F)(F)F)c4)[C@H]4CC[C@@H]3C4=C(C)C)c2)c1`, on Relaxin receptor 1 [1], the pEC50 is less than 5.00.
Consider `COc1ccc(-c2cc(O)ccc2F)cc1C(=O)N[C@H]1[C@@H](C(=O)Nc2ccc(F)c(C(F)(F)F)c2)[C@H]2CC[C@@H]1/C2=C\c1cnoc1`, for which, at Relaxin receptor 1 [1], the pEC50 was 5.52. Further, the remaining at 0.5 h in data set [2], in data set [3] and in data set [4] was more than 90% each time.
Consider `COc1ccc(-c2cncnc2)cc1C(=O)N[C@H]1[C@@H](C(=O)Nc2ccc(F)c(C(F)(F)F)c2)[C@H]2CC[C@@H]1C2=C(C)C`, for which the pEC50 at Relaxin receptor 1 [1] is less than 5.00.

As a reminder, the pEC50 is the negative decadic logarithm of the EC50, by convention in mol/L.
